What all share (assay type): cell-based, mouse
For experiment [1], the system named is mCEC. The experiment is described as follows: Scratch wound assay of mCECs treated with recombinant cytokines. The following applies: recombinant proteins, FIG. 4A, 4B. Here is the method: (§1) Recombinant pro-IL-1β and pro-IL-18 proteins were generated from E. coli. The proteins were treated with caspase 1 to obtain the active forms.
The coding sequences of human pro-IL-18 and pro-IL-1β were cloned into the PET28a vector, where an N-terminal 6xHis tag is added. The purification procedure is similar to the published protocol with minor modifications (Ramirez, et al. J Biol Chem. 2018 293(18): 7058-7067). Briefly, the respective plasmid was transformed into BL21 […] chemically competent cells. A single colony was picked to grow in LB media at 37° C. until OD600 researched 0.6, and 0.5 mM IPTG was used for overnight induction at ˜16° C. Harvested cells were collected by centrifugation, followed by resuspension in 50 mM Hepes (pH 7.5), 5 mM MgCl2, 1 mM PMSF, ˜0.5 mg/ml lysozyme and 50-100 U DNase I. After sonication, the cell lysates were centrifuged. The supernatant was then applied to a Ni-NTA affinity chromatography, where buffer A contained 50 mM Hepes (pH 7.5) and Buffer B contained an extra 500 mM imidazole. Fractions with the highest purities were pooled and applied to a diethylaminoethyl-cellulos (DEAE) ion exchange chromatography, where buffer A′ contained 50 mM Hepes (pH 7.5) and Buffer B′ contained an extra 500 mM NaCl. As judged by SDS PAGE, fractions with >95% purity were pooled and dialyzed in 50 mM Hepes (pH 7.5) and 100 mM NaCl.
Recombinant human caspase-1 was purchased from Enzo Life Sciences (ALX-201-056). The cleavage of pro-IL-18 or pro-IL-1β was performed at 37° C. in PBS buffer containing 2 mM DTT.
To induce cellular migration, an in vitro scratch test was performed using mCECs. Cells were treated with dissected corneas or cytokines when they reached confluence, were subsequently scratched with a micropipette tip, and incubated for up to 12 hrs. Images were taken at 0, 3, 6, and 9 hours after the initial scratch. Images of wound closure were quantified by using ImageJ software.

Experiment [2] relates to corneal epithelial cells. The experiment can be described thus: ZO-1 staining of corneal epithelial cells treated with recombinant proteins. The following applies: FIG. 4D, 4E. Here is the method:
as §1

The subject of experiment [3] is mCEC. The experiment is described as follows: Transepithelial electrical resistance (TEER) of mCEC treated with recombinant proteins. The following applies: FIG. 4C. Here is the method:
as §1
mCEC were seeded in transwell inserts (2×10^5 per well) and allowed to become confluent. For the protein treatment, proteins were added into the culture medium 16 or 4 hours before measurement; the EVOM2 instrument was used to measure the TEER. For the co-culture experiments, mCEC were seeded in the transwell inserts and allowed to become confluent. The isolated primary neutrophils were then seeded into 24 well plates and the EVOM2 instrument was used to measure the TEER at 24 hr.

For “pro-IL-18: recombinant pro-IL-18 protein generated from E. coli, used as control”, the “mCEC wound closure / migration” value in experiment [1] was “failed to alter mCEC migration”.

Take “active IL-1β: recombinant human pro-IL-1β from E. coli treated with caspase 1 to obtain the active form”: the entries for the “mCEC wound closure / migration” value in experiment [1] and in experiment [1] (listed as activated IL-1β) were “significantly delayed mCEC wound closure” and “significantly suppress corneal epithelial cell migration”, respectively. In addition, the “tight junctions by ZO-1 staining” value in experiment [2] is given as “disrupted epithelial cell tight junctions”; in experiment [2] (listed as activated IL-1β) it was “tight junction was disrupted”. Also, the figures for the “epithelial tight junctions / electrical resistance by TEER” value in experiment [3] and in experiment [3] (listed as activated IL-1β) were “disrupted epithelial cell tight junctions” and “significantly reduce the electrical resistance”, respectively.

For the substance “boiled IL-18: boiled recombinant IL-18 protein used as control”, the “mCEC wound closure / migration” value in experiment [1] is on record as “failed to alter mCEC migration”.

As to “pro-IL-1β: recombinant pro-IL-1β protein generated from E. coli, used as control”, in experiment [1], the “mCEC wound closure / migration” value was “failed to alter mCEC migration”.

With “active IL-18: recombinant human pro-IL-18 from E. coli treated with caspase 1 to obtain the active form”, the entries for the “mCEC wound closure / migration” value in experiment [1] and in experiment [1] (listed as activated IL-18) were “significantly delayed mCEC wound closure” and “significantly suppress corneal epithelial cell migration”, respectively. For the same substance, the “tight junctions by ZO-1 staining” value in experiment [2] is “disrupted epithelial cell tight junctions”; in experiment [2] (listed as activated IL-18), “tight junction was disrupted”. The “epithelial tight junctions / electrical resistance by TEER” value in experiment [3] is “disrupted epithelial cell tight junctions”; in experiment [3] (listed as activated IL-18), “significantly reduce the electrical resistance”.

“boiled IL-1β: boiled recombinant IL-1β protein used as control”: the “mCEC wound closure / migration” value in experiment [1] is recorded as “failed to alter mCEC migration”.

The record behind these values is patent US20240122879A1, “COMPOSITIONS AND METHODS FOR TREATING OCULAR CHEMICAL BURNS” (OHIO STATE INNOVATION FOUNDATION, priority 2022, published 2024).
